Reference: the supplement of paper PMC11208160

Assay: recombinant barcode read abundance after kanamycin selection (control-corrected) (log10(CPM+1)); higher = more efficient recombination; sequences stand for … in AGTGCAGAGAAAATCGGCCAGTTTTCTCTGCCTGCAGTCCGCATGCCGT…AGATTTATGCAGCGGACTGCCTTTCTCCCAAAGTGATAAACCGGACAGTATCATGGACCGGTTTTCCCGGTAATCCGTATTTGCAAGGTTGGTTTCACT; site = the 11-nt target
Summary of the method: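 A vector carrying a T7-inducible recombinase and the last 73 bp of the bridge RNA received, by Gibson cloning, oligos encoding a promoter, target, barcode and the first 104 bridge RNA bases under J23119. The pooled constructs entered E. coli together with a donor plasmid by electroporation. Selection used chloramphenicol/ampicillin/kanamycin with 0.1 mM IPTG, with chloramphenicol/ampicillin LB agar as the control, each in two replicates. Recombination efficiency is the averaged, control-corrected counts-per-million of barcodes at recombinant junctions, reported as log10(CPM+1).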
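Also: IS621 recombinase and bridge RNA in Escherichia coli cells.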

| Sequence | recombinant barcode read abundance (log10) |
| --- | --- |
| CCAAGGCCTTGGGTTCTAACCTGTTGCCG (site CCAAGGCCTCG) | 0.0466 |
| CATGGGCCTTGGGTTCTAACCTGTTGCCT (site CCTGGGCCTAG) | 0.0246 |
| GTGGTAACTTGGGTTCTAACCTGTTGCCT (site GTGGTAGCTAG) | 0.3 |
| GTTTGTTCTTGGGTTCTAACCTGTTGCCT (site GTTTGATCTAG) | 0.0239 |
| CTATGACCTTGGGTTCTAACCTGTTGCTT (site CTATGACCTAC) | 0.0411 |
| GTCGGAGCTTGGGTTCTAACCTGTTGCTG (site GTCGGAGCTCG) | 0.353 |
| TACTAAGCTTGGGTTCTAACCTGTTGCAT (site TACTAAGCTAC) | 0.0997 |
| GTGAGGCCTTGGGTTCTAACCTGTTGCCT (site TTGAGGCCTAG) | 0.0445 |
| TGGGGTACTTGGGTTCTAACCTGTTGCCT (site TGGTGTACTAG) | 0.177 |
| CCGTCTACTTGGGTTCTAACCTGTTGCTC (site CCGTCTACTGA) | 0.0724 |
| CGGGCCTCTTGGGTTCTAACCTGTTGCTG (site CGGGCCTCTAA) | 0.504 |
| CAGCTACCTTGGGTTCTAACCTGTTGCCT (site CCGCTACCTAG) | 0.334 |
| CTCTTGTCTTGGGTTCTAACCTGTTGCTG (site CTCGTGTCTCT) | 0.0114 |
| CTCGATTCTTGGGTTCTAACCTGTTGCAT (site CTCTATTCTAT) | 0.213 |
| TAGGAAACTTGGGTTCTAACCTGTTGCGT (site TAGGATACTAC) | 0.447 |
| TGTGCGGCTTGGGTTCTAACCTGTTGCCT (site GGTGCGGCTAG) | 0.535 |
| GTATTAGCTTGGGTTCTAACCTGTTGCCG (site GTATTAGCTCG) | 1.44 |
| TACCCGCCTTGGGTTCTAACCTGTTGCTA (site TACCCGCCTTA) | 0.59 |
| TCTAAGTCTTGGGTTCTAACCTGTTGCCG (site TCTAAGTCTAG) | 0.0709 |
| CATAATTCTTGGGTTCTAACCTGTTGCCT (site CATGATTCTAG) | 0.0188 |
| GCACAGACTTGGGTTCTAACCTGTTGCCT (site GCACAGACTAG) | 2.09 |
| ACGCGGCCTTGGGTTCTAACCTGTTGCCT (site CCGCGGCCTAG) | 0.42 |

| Sequence | recombinant barcode read abundance (log10) |
| --- | --- |
| GGGTAAACTTGGGTTCTAACCTGTTGCCT (site GGGTAATCTAG) | 0.702 |
| TCCCATGCTTGGGTTCTAACCTGTTGCCT (site TCCCATTCTAG) | 0.0569 |
| CGGAGCCCTTGGGTTCTAACCTGTTGCAT (site CGGAGCCCTAT) | 1.63 |
| TGCCTAGCTTGGGTTCTAACCTGTTGCCT (site TGCCTAGCTAG) | 0.24 |
| AGCCACGCTTGGGTTCTAACCTGTTGCCT (site AGCCACGCTAG) | 1.11 |
| GCGCGCCCTTGGGTTCTAACCTGTTGCTG (site GCGCGCCCTCA) | 0.331 |
| GCCGGTCCTTGGGTTCTAACCTGTTGCCT (site GCAGGTCCTAG) | 0.522 |
| AGGGCACCTTGGGTTCTAACCTGTTGCAG (site AGGGCACCTCT) | 1.56 |
| CTCCCTGCTTGGGTTCTAACCTGTTGCCT (site GAGGTCCCTCC) | 0.0158 |
| CCGCTCGCTTGGGTTCTAACCTGTTGCCT (site CCGCTCGCTAG) | 0.146 |
| ACCTGTACTTGGGTTCTAACCTGTTGCCT (site ACCAGTACTAG) | 0.0531 |
| GTCACAACTTGGGTTCTAACCTGTTGCCG (site AGGTTTGCTAA) | 0.056 |
| ACCCAGTCTTGGGTTCTAACCTGTTGCGG (site ACCCAGTCTCC) | 2.08 |
| AAGACAACTTGGGTTCTAACCTGTTGCGG (site TGCCTGCCTAG) | 0.042 |
| GTTCAGACTTGGGTTCTAACCTGTTGCCT (site GTACAGACTAG) | 1.15 |
| CGGGCCTCTTGGGTTCTAACCTGTTGCTG (site CGGGCCTCTTA) | 0.872 |
| CGCGCAGCTTGGGTTCTAACCTGTTGCCT (site CGAGCAGCTAG) | 0.382 |
| CTCACGCCTTGGGTTCTAACCTGTTGCTT (site CACACGCCTAG) | 0.228 |
| ACCTGACCTTGGGTTCTAACCTGTTGCGG (site ACCTGACCTCC) | 1.6 |
| CCATTGTCTTGGGTTCTAACCTGTTGCCG (site CCATTGTCTCG) | 0.124 |
| CCTGAGTCTTGGGTTCTAACCTGTTGCCT (site CCTGAATCTAG) | 0.289 |
| CTAAGGCCTTGGGTTCTAACCTGTTGCCT (site CTAAAGCCTAG) | 0.377 |

| Sequence | recombinant barcode read abundance (log10) |
| --- | --- |
| AGTCTAGCTTGGGTTCTAACCTGTTGCCA (site AGTCTAGCTCG) | 0.217 |
| GGAGAAGCTTGGGTTCTAACCTGTTGCCT (site GGAGAGGCTAG) | 1.15 |
| GCTCCTACTTGGGTTCTAACCTGTTGCCT (site GATCCTACTAG) | 0.118 |
| ATGCTACCTTGGGTTCTAACCTGTTGCGG (site ATGCTACCTCC) | 1.2 |
| TGTGCGGCTTGGGTTCTAACCTGTTGCCT (site CGTGCGGCTAG) | 0.00936 |
| TGGACGACTTGGGTTCTAACCTGTTGCTT (site GATCGAGCTCT) | 0.0173 |
| CCGCCGGCTTGGGTTCTAACCTGTTGCCT (site CCGCCGGCTAG) | 0.146 |
| CACTATCCTTGGGTTCTAACCTGTTGCCT (site CACTATCCTAG) | 2.16 |
| TAGTGCTCTTGGGTTCTAACCTGTTGCTC (site TAGTGCTCTGA) | 1.07 |
| TCAGAAGCTTGGGTTCTAACCTGTTGCCG (site ATGAGGCCTTA) | 0.022 |
| GTCAAGCCTTGGGTTCTAACCTGTTGCTG (site GTCAAGCCTCA) | 1.23 |
| TGTCAACCTTGGGTTCTAACCTGTTGCCT (site TGTCAAGCTAG) | 0.12 |
| AATCTCCCTTGGGTTCTAACCTGTTGCCT (site AATCTCCCTAG) | 1.07 |
| AGTTAATCTTGGGTTCTAACCTGTTGCTT (site AGCTACTCTAA) | 0.0347 |
| GAGGGTACTTGGGTTCTAACCTGTTGCAT (site GAGCGTACTAT) | 0.206 |
| GGTAATACTTGGGTTCTAACCTGTTGCAT (site AACGTACCTTG) | 0.191 |
| GTATCTACTTGGGTTCTAACCTGTTGCCT (site GAATCTACTAG) | 0 |
| ATTACTACTTGGGTTCTAACCTGTTGCCT (site ACTACTACTAG) | 0.0886 |
| GTCAAGCCTTGGGTTCTAACCTGTTGCTG (site GTCAAACCTCA) | 0.0753 |
| CTACGGTCTTGGGTTCTAACCTGTTGCAC (site CTACGGTCTGT) | 0.404 |
| AGGAACTCTTGGGTTCTAACCTGTTGCAT (site GGGAACCCTAT) | 0.0839 |
| AGCCCGCCTTGGGTTCTAACCTGTTGCCT (site TGCCCGCCTAG) | 0.157 |
